Experimental data taken from the supplement of paper PMC10307832.

What follows are cell lines tested with O=C(NC1CCNCC1)c1n[nH]cc1NC(=O)c1c(Cl)cccc1Cl [AT-7519] + COc1cc2c(Oc3ccc(NC(=O)C4(C(=O)Nc5ccc(F)cc5)CC4)cc3F)ccnc2cc1OCCCN1CCOCC1 [Foretinib] (partner 0.25 µM) (assay: relative viability (nuclei count vs DMSO), 5 days (fraction); higher = more cells survive). Settings: first compound 0.01 µM.
In short: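 Nuclei were stained with Hoechst during a one-step fixation (final 0.05% Triton X-100, 1% formaldehyde, 1 ug/ml Hoechst) carried out 5 days after dosing, then counted on 4× images. The cells, lung cancer lines in 1536-well plates, had been dosed by pin tool the day after seeding with one drug alone or a fixed anchor-drug dose plus five library-drug doses (not always all listed) in √10 steps. Relative viability is the nuclei count in treated wells divided by that in vehicle wells, and each value is the median of duplicate plates.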

Cell Line	relative viability
NCI-H2342	1.02
NCI-H1623	0.86
NCI-H727	1.14
NCI-H1650	1.15
EBC-1	0.101
NCI-H1703	0.335
NCI-H1993	0.786
SW 1573	0.797
NCI-H838	1.07
LCLC-103H	0.773
NCI-H520	0.922
NCI-H2126	1.08
EMC-BAC-2	0.977
NCI-H2085	0.932
Calu-6	0.903
HCC-366	0.994
NCI-H1666	0.839
NCI-H596	0.922
LK-2	1.04
NCI-H2087	1.14
SK-MES-1	0.907

Cell Line	relative viability
H3255	0.901
COR-L23	1.19
COR-L 105	1.17
IA-LM	1.25
LOU-NH91	0.876
ChaGo-K-1	0.931
NCI-H2170	1.09
NCI-H2405	1.04
HOP-62	1.11
A549	0.925
LU99A	0.873
BEN	0.719
HARA	1.07
SW 900	0.792
NCI-H661	1.05
NCI-H1299	1.13
NCI-H1563	0.846
ABC-1	0.937
NCI-H358	0.646
NCI-H650	1.04

Same assay, conditions: first compound 0.03162 µM

Cell Line	relative viability
NCI-H2342	0.972
NCI-H1623	0.834
NCI-H727	0.691
NCI-H1650	1.12
EBC-1	0.106
NCI-H1703	0.317
NCI-H1993	0.842
SW 1573	0.918
NCI-H838	1.02
LCLC-103H	0.704
NCI-H520	0.624
NCI-H2126	1.24
EMC-BAC-2	0.998
NCI-H2085	0.84
Calu-6	0.917
HCC-366	0.896
NCI-H1666	0.77
NCI-H596	0.834
LK-2	1.16
NCI-H2087	1.09
SK-MES-1	1.09

Cell Line	relative viability
H3255	0.876
COR-L23	0.799
COR-L 105	1.01
IA-LM	1.53
LOU-NH91	0.943
ChaGo-K-1	0.845
NCI-H2170	1.03
NCI-H2405	1.11
HOP-62	1.16
A549	0.984
LU99A	0.771
BEN	0.636
HARA	0.638
SW 900	0.68
NCI-H661	0.875
NCI-H1299	1.06
NCI-H1563	0.867
ABC-1	1.09
NCI-H358	0.496
NCI-H650	0.923

Same assay, conditions: first compound 0.3162 µM

Cell Line	relative viability
NCI-H2342	0.977
NCI-H1623	0.997
NCI-H727	0.769
NCI-H1650	0.914
EBC-1	0.0999
NCI-H1703	0.353
NCI-H1993	0.809
SW 1573	0.722
NCI-H838	0.886
LCLC-103H	0.879
NCI-H520	0.718
NCI-H2126	0.838
EMC-BAC-2	1.02
NCI-H2085	0.888
Calu-6	0.865
HCC-366	0.941
NCI-H1666	0.927
NCI-H596	0.897
NCI-H2087	1.07
SK-MES-1	0.735

Cell Line	relative viability
H3255	0.906
COR-L23	0.992
COR-L 105	1.2
IA-LM	1.08
LOU-NH91	0.976
ChaGo-K-1	0.967
NCI-H2170	1.04
NCI-H2405	1.01
HOP-62	1.04
A549	0.852
LU99A	0.801
BEN	0.922
HARA	0.906
SW 900	0.858
NCI-H661	1.05
NCI-H1299	1.1
NCI-H1563	0.948
ABC-1	0.962
NCI-H358	0.492
NCI-H650	1.01

Same assay, conditions: first compound 1 µM

Cell Line	relative viability
NCI-H2342	0.965
NCI-H1623	0.711
NCI-H727	0.297
NCI-H1650	0.295
EBC-1	0.0905
NCI-H1703	0.331
NCI-H1993	0.594
SW 1573	0.543
NCI-H838	0.527
LCLC-103H	0.677
NCI-H520	0.593
NCI-H2126	1.12
EMC-BAC-2	0.794
NCI-H2085	0.874
Calu-6	0.641
HCC-366	0.717

Cell Line	relative viability
NCI-H1666	0.647
NCI-H596	0.731
LK-2	0.95
NCI-H2087	0.295
SK-MES-1	0.919
H3255	0.794
COR-L23	0.507
COR-L 105	0.525
IA-LM	0.918
LOU-NH91	0.821
ChaGo-K-1	0.733
NCI-H2170	0.958
NCI-H2405	0.628
HOP-62	0.977
A549	0.845
